Test results: ChEMBL document CHEMBL5715260, “Selectivity Literature for EUbOPEN Chemogenomic Library” (2024)
pIC50, pKd, pKi: −log10 of the molar value. Where a SMILES comes first, the peptide text is derived from it. [ ]: non-standard residue; d: D form. The star is where a group is joined. Lys(Me,2-norbornyl) = CN(CCCC[C@H](N)C(=O)O)C1CC2CCC1C2; Benzoyl(4-tBu) = CC(C)(C)c1ccc(C(=O)*)cc1; Cbz = O=C(OCc1ccccc1)*; CH2F = FC*

Key:
Parameters in all cases: recommended concentration 1 uM
[1] = target: Muscarinic acetylcholine receptor M2 (Homo sapiens) (UniProt P08172); experiment: Selectivity interaction (Ricerca selectivity panel) EUB0001125a CHRM2; details: at 1 µM
Muscarinic acetylcholine receptor M2 (Homo sapiens), sequence (P08172 whole entry): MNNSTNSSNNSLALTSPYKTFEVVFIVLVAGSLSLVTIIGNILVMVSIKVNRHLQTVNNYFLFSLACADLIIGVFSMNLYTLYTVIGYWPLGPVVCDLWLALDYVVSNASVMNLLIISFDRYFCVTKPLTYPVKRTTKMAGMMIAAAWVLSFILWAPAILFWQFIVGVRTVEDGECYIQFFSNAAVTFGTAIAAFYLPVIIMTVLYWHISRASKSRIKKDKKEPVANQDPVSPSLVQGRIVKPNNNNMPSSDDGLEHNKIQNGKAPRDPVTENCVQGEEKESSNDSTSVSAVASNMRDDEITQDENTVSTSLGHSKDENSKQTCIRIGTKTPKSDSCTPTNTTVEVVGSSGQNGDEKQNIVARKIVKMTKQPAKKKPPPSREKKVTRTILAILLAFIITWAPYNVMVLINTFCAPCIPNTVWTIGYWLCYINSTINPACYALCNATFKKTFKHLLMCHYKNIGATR

[2] = target: Alpha-1B adrenergic receptor (Homo sapiens) (UniProt P35368); experiment: Selectivity interaction (Ricerca selectivity panel) EUB0001125a ADRA1B; details: at 1 µM
[3] = target: Muscarinic acetylcholine receptor M1 (Homo sapiens, UniProt P11229); experiment: Selectivity interaction (US National Institute of Mental Health's Psychoactive Drug Screen Program Selectivity Panel) EUB0001125a CHRM1
[4] = target: Alpha-1A adrenergic receptor (Homo sapiens, UniProt P35348); experiment: Selectivity interaction (US National Institute of Mental Health's Psychoactive Drug Screen Program Selectivity Panel) EUB0001125a ADRA1A
[5] = target: Muscarinic acetylcholine receptor M2 (Homo sapiens, UniProt P08172); experiment: Selectivity interaction (US National Institute of Mental Health's Psychoactive Drug Screen Program Selectivity Panel) EUB0001125a CHRM2
Muscarinic acetylcholine receptor M2, sequence (P08172 whole entry): as above

[6] = target: Muscarinic acetylcholine receptor M4 (Homo sapiens, UniProt P08173); experiment: Selectivity interaction (US National Institute of Mental Health's Psychoactive Drug Screen Program Selectivity Panel) EUB0001125a CHRM4
Muscarinic acetylcholine receptor M4, sequence (P08173 whole entry): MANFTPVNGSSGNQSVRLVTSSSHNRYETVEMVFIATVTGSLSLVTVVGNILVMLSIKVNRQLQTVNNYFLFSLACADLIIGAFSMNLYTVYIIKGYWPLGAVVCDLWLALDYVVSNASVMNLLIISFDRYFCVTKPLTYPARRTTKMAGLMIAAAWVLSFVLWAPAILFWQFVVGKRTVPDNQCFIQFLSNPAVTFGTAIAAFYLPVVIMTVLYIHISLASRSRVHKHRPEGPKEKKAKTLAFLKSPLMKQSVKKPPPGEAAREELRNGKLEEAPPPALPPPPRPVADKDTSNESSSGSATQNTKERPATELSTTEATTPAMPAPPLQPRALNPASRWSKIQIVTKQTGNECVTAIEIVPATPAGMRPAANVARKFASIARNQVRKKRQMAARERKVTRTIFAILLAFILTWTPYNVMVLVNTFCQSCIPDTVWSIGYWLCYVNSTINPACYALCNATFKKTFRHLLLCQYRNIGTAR

[7] = target: Alpha-2C adrenergic receptor (Homo sapiens, UniProt P18825); experiment: Selectivity interaction (US National Institute of Mental Health's Psychoactive Drug Screen Program Selectivity Panel) EUB0001125a ADRA2C
[8] = target: 5-hydroxytryptamine receptor 2A (Homo sapiens, UniProt P28223); experiment: Selectivity interaction (US National Institute of Mental Health's Psychoactive Drug Screen Program Selectivity Panel) EUB0001125a HTR2A
[9] = target: Alpha-1A adrenergic receptor (Homo sapiens) (UniProt P35348); experiment: Selectivity interaction (Ricerca selectivity panel) EUB0001125a ADRA1A; details: at 1 µM
Caspase-9 [10] = target: T1, Caspase-9 (Homo sapiens, UniProt P55211); experiment: Selectivity interaction (Enzymatic assay) EUB0002177aAD CASP9
T1 sequence (P55211 whole entry): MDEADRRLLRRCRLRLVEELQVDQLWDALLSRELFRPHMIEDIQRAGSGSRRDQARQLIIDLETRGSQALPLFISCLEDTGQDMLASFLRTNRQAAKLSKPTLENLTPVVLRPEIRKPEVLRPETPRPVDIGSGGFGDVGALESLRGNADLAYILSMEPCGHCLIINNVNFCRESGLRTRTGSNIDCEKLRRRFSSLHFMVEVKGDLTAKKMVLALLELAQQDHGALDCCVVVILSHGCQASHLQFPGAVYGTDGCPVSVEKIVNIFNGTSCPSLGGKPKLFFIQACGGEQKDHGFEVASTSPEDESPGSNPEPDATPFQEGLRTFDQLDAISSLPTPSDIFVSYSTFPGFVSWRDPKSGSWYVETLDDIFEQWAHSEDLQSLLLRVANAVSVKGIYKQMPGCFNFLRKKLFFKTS

[11] = target: T2, Histone-lysine N-methyltransferase 2A (Homo sapiens, UniProt Q03164); experiment: (§1) Selectivity interaction (Enzymatic assay) EUB0002166aAD MLL
T2 sequence (Q03164 1-2718 limits assumed): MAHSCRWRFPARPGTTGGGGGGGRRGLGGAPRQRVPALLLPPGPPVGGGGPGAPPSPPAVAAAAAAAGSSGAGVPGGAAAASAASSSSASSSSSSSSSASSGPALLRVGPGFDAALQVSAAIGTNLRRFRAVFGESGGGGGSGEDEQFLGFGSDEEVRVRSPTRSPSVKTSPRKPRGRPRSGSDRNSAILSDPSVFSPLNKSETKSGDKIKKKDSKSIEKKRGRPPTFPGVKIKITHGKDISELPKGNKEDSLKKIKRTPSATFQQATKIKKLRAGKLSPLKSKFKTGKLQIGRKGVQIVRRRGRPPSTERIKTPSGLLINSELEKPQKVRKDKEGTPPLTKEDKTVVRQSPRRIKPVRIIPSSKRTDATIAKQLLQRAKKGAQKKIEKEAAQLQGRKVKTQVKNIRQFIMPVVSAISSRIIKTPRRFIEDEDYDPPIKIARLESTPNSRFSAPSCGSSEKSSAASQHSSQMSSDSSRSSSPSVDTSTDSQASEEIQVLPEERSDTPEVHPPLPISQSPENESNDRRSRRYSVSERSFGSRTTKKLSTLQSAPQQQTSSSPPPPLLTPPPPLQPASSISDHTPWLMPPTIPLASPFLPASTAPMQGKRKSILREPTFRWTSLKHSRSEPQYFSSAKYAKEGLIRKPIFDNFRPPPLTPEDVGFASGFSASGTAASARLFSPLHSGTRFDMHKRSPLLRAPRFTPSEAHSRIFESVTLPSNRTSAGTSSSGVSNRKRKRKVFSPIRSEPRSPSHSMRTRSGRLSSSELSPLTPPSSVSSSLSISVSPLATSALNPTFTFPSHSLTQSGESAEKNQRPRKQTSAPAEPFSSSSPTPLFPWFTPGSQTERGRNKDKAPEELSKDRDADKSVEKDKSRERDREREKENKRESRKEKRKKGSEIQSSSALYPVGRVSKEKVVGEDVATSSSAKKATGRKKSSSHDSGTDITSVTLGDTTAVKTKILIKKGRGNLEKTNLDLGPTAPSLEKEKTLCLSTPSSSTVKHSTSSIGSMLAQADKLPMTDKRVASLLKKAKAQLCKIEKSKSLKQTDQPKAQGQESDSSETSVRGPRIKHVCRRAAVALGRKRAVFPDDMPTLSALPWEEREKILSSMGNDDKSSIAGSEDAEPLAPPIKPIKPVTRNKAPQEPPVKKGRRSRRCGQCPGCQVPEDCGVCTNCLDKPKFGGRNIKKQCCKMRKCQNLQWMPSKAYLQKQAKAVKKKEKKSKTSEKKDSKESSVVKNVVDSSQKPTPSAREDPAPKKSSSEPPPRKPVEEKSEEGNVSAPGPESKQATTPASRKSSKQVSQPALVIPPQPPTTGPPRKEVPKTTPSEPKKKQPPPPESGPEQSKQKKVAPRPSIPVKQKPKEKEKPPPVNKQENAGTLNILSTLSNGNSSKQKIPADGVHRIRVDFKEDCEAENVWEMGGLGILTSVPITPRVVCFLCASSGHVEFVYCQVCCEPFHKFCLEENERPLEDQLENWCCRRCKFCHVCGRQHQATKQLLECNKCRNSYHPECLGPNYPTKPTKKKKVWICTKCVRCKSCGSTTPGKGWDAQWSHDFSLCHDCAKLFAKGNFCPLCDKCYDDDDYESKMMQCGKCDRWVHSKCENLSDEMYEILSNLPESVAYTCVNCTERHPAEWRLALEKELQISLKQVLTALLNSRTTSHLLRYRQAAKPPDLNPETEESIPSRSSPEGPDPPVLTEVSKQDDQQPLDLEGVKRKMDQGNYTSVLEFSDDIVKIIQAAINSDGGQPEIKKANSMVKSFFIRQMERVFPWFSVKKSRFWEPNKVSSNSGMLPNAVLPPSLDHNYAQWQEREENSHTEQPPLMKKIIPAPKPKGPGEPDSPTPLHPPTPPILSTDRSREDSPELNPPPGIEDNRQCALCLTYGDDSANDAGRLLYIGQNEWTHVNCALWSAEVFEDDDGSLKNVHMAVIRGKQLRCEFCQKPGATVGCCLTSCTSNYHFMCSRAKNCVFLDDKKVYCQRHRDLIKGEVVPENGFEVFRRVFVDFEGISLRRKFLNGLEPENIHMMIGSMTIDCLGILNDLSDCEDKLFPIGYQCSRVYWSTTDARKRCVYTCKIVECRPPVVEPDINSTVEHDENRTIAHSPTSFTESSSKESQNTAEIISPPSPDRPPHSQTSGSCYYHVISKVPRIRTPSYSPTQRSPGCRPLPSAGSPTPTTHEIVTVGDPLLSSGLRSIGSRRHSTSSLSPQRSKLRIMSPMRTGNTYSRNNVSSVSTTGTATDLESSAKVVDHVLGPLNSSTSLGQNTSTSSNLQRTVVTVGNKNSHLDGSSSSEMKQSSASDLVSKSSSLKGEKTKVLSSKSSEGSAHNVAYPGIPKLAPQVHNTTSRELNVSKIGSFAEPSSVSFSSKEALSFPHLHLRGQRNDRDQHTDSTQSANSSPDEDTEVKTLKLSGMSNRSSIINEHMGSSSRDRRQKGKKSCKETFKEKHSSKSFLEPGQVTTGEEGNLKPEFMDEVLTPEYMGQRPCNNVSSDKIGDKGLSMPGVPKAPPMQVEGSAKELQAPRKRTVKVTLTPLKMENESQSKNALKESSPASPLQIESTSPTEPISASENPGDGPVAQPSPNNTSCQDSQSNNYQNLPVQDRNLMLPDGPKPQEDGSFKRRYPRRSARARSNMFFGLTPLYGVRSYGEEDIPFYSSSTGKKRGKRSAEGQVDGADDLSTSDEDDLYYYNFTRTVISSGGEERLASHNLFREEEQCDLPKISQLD
T2 sequence (Q03164 2719-3969 limits assumed): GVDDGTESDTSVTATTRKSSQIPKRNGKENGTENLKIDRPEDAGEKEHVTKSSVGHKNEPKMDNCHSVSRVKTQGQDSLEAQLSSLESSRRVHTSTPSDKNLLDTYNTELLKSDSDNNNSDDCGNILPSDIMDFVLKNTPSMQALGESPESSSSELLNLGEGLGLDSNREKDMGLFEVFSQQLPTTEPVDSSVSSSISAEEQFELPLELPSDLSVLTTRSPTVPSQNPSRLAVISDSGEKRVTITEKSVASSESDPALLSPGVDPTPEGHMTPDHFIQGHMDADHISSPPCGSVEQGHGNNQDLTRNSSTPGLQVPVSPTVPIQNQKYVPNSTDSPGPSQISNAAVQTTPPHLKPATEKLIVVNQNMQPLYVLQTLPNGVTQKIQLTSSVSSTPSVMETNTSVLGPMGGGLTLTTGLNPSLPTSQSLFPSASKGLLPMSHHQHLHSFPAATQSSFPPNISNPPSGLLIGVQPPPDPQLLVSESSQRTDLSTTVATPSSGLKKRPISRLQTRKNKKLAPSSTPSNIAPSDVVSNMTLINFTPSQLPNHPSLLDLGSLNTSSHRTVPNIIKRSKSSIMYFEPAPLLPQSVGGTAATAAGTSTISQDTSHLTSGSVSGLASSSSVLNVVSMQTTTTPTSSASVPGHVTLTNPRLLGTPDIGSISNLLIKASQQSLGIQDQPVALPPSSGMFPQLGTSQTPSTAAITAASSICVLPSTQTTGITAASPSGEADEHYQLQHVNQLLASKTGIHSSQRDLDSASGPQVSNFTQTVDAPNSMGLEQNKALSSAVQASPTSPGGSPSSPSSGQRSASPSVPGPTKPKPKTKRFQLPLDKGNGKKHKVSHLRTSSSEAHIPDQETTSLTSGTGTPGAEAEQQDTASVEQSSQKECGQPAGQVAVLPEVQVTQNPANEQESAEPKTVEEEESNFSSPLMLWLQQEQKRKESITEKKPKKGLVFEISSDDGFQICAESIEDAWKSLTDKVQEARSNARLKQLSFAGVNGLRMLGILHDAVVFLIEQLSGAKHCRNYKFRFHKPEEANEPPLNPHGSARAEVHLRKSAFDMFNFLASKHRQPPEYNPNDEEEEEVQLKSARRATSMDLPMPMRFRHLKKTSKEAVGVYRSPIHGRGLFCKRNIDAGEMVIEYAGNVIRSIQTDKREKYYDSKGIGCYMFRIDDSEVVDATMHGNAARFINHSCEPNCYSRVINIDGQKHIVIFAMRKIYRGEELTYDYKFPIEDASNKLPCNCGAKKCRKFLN

[12] = target: T2, Histone-lysine N-methyltransferase 2A; experiment: as §1; remark: listed apart in the source
[13] = target: Poly [ADP-ribose] polymerase 1 (Homo sapiens, UniProt P09874); experiment: Selectivity interaction (Enzymatic assay) EUB0002249a PARP1
[14] = target: Poly [ADP-ribose] polymerase tankyrase-1 (Homo sapiens, UniProt O95271); experiment: Selectivity interaction (Enzymatic assay) EUB0002249a TNKS1
Caspase-9 [15] = target: T1, Caspase-9; experiment: Selectivity interaction (Eurofins (enzymatic assay)) EUB0002202a CASP9
Caspase-7 = target: T3, Caspase-7 (Homo sapiens, UniProt P55210); experiment: Selectivity interaction (Eurofins (enzymatic assay)) EUB0002202a CASP7
T3 sequence (P55210 whole entry): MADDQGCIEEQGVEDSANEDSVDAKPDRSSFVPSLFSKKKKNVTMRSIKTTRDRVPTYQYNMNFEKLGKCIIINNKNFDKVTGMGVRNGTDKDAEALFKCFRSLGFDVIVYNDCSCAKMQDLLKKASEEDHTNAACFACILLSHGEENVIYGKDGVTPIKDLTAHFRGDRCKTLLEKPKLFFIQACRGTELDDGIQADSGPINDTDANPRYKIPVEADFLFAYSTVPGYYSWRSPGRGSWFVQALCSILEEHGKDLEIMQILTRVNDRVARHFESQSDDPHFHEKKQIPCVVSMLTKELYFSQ

Caspase-8 = Caspase-8 (Homo sapiens, UniProt Q14790); experiment: Selectivity interaction (Eurofins (enzymatic assay)) EUB0002202a CASP8
[16] = target: Chromobox protein homolog 8 (Homo sapiens, UniProt Q9HC52); experiment: Selectivity interaction (SPR) EUB0001090a CBX8
[17] = target: Chromobox protein homolog 6 (Homo sapiens, UniProt O95503); experiment: Selectivity interaction (SPR) EUB0001090a CBX6
[18] = target: T4, Chromobox protein homolog 2 (Homo sapiens, UniProt Q14781); experiment: Selectivity interaction (SPR) EUB0001090a CBX2
T4 sequence (Q14781 whole entry): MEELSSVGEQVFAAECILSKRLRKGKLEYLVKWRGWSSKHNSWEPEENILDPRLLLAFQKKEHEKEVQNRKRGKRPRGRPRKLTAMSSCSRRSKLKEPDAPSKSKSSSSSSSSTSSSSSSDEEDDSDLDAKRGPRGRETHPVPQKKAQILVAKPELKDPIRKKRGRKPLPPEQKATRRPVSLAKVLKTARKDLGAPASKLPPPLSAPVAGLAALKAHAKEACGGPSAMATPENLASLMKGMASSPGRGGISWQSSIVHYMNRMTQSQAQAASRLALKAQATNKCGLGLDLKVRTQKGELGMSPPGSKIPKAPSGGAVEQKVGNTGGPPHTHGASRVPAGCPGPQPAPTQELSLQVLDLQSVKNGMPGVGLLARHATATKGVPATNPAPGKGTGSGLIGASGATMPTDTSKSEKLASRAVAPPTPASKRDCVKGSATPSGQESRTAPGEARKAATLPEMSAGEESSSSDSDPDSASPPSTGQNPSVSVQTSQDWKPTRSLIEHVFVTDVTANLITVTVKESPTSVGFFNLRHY

[19] = target: E3 SUMO-protein ligase CBX4 (Homo sapiens, UniProt O00257); experiment: Selectivity interaction (SPR) EUB0001090a CBX4
[20] = target: Chromodomain Y-like protein 2 (Homo sapiens, UniProt Q8N8U2); experiment: Selectivity interaction (SPR) EUB0001090a CDYL2

COc1cc2c(NC3CCN(C(C)C)CC3)nc(C3CCCCC3)nc2cc1OCCCN1CCCC1
Inhibition of control [1]: 64% | Inhibition of control [2]: 69% | pKi [3]: 6.43 | pKi [4]: 6.30 | pKi [5]: 6.29 | pKi [6]: 6.29 | pKi [7]: 6.40 | pKi [8]: 5.92 | Inhibition of control [9]: 90%

CC[C@H](C)[C@H](NC(C)=O)C(=O)N[C@@H](CCC(=O)O)C(=O)N[C@H](C(=O)N[C@H](C=O)CC(=O)O)[C@@H](C)O (Ac-IETD-aldehyde)
pIC50 (Caspase-9 [10]): 7.46

Cc1nc(F)ccc1-c1cc(Cn2ccn(C)c2=N)cc(C(=O)NCc2ccc(Cl)c(Cl)c2)c1
pIC50 [11]: 7.70 | pIC50 [12]: 7.70

NC(=O)c1cccc(NC(=O)CCC(=O)NCCc2cn(CCNS(=O)(=O)c3cccc(C(=O)O)c3)nn2)c1
pIC50 [13]: 4.93 | pIC50 [14]: 5.04

COC(=O)CC[C@H](NC(=O)[C@H](Cc1c[nH]c2ccccc12)NC(=O)OCc1ccccc1)C(=O)N[C@@H](Cc1cnc[nH]1)C(=O)N[C@@H](CC(=O)OC)C(=O)CF (Cbz-WE(OMe)HD(OMe)-CH2F)
pIC50 (Caspase-9 [15]): 6.62 | pIC50 (Caspase-7): 6.24 | pIC50 (Caspase-8): 6.66

COC(=O)[C@H](CO)NC(=O)[C@H](CCCCN(C)C1CC2CCC1C2)NC(=O)[C@H](CC(C)C)NC(=O)[C@H](C)NC(=O)[C@H](Cc1ccccc1)NC(=O)c1ccc(C(C)(C)C)cc1 (some centres not stated) ({Benzoyl(4-tBu)}-FAL[Lys(Me,2-norbornyl)]S-OMe)
pKd [16]: 6.34 | pKd [17]: 6.27 | pKd [18]: 5.76 | pKd [19]: 7.57 | pKd [20]: 6.38
